Laboratory results: patent US6737383B1, “Herbicidal oxadiazolidines” (priority 1999, dated 2004)

Key:
[1] = tested on: blackgrass; experiment: Test B pre/postemergence blackgrass; type: in vivo, Alopecurus myosuroides
How it was run: (§1)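 Response is a visual 0-to-10 score relative to untreated plants, where 0 means no effect and 10 means complete control, taken twelve to sixteen days after application. Treatments went onto soil at planting and onto foliage of 1- to 4-leaf plants, using a surfactant-containing non-phytotoxic solvent.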

[2] = tested on: crabgrass; experiment: Test B pre/postemergence crabgrass; type: in vivo, Digitaria sanguinalis
How it was run: as §1

[3] = tested on: giant foxtail; experiment: Test B pre/postemergence giant foxtail; type: in vivo, Setaria faberii
How it was run: as §1

[4] = tested on: purple nutsedge; experiment: Test B pre/postemergence purple nutsedge; type: in vivo, Cyperus rotundus
How it was run: as §1

[5] = tested on: wheat; experiment: Test B pre/postemergence wheat; type: in vivo, Triticum aestivum
How it was run: as §1

[6] = tested on: pigweed; experiment: Test B pre/postemergence pigweed; type: in vivo, Amaranthus retroflexus
How it was run: as §1

[7] = tested on: morningglory; experiment: Test B pre/postemergence morningglory; type: in vivo, Ipomoea hederacea
How it was run: as §1

[8] = tested on: velvetleaf; experiment: Test B pre/postemergence velvetleaf; type: in vivo, Abutilon theophrasti
How it was run: as §1

[9] = tested on: bedstraw; experiment: Test B pre/postemergence bedstraw; type: in vivo, Galium aparine
How it was run: as §1

[10] = tested on: rape; experiment: Test B pre/postemergence rape; type: in vivo, Brassica napus
How it was run: as §1

[11] = tested on: soybean; experiment: Test B pre/postemergence soybean; type: in vivo, Glycine max
How it was run: as §1

[12] = tested on: wild oat; experiment: Test B pre/postemergence wild oat; type: in vivo, Avena fatua
How it was run: as §1

[13] = tested on: sugar beet; experiment: Test B pre/postemergence sugar beet; type: in vivo, Beta vulgaris
How it was run: as §1

[14] = tested on: surinam grass; experiment: Test B pre/postemergence surinam grass; type: in vivo, Brachiaria decumbens
How it was run: as §1

[15] = tested on: corn; experiment: Test B pre/postemergence corn; type: in vivo, Zea mays
How it was run: as §1

[16] = tested on: cocklebur; experiment: Test B pre/postemergence cocklebur; type: in vivo, Xanthium strumarium
How it was run: as §1

[17] = Postemergence, Rate 125 g/ha, scale of 0 to 10 where 0 is no effect and 10 is complete control
[18] = Preemergence, Rate 62 g/ha, scale of 0 to 10 where 0 is no effect and 10 is complete control
[19] = Preemergence, Rate 125 g/ha, 0 is no effect, 10 is complete control
[20] = Preemergence, Rate 250 g/ha, scale 0 to 10, 0 is no effect, 10 is complete control
[21] = Preemergence, Rate 500 g/ha, scale 0 to 10 (0 no effect, 10 complete control)
[22] = Rate 62 g/ha, Postemergence, scale of 0 to 10 where 0 is no effect and 10 is complete control
[23] = Rate 250 g/ha, Postemergence, scale 0 to 10, 0 is no effect, 10 is complete control
[24] = Rate 500 g/ha, Postemergence, scale 0 to 10

Cc1ccccc1-n1c(=O)on(C(=O)N(c2ccc(Br)cc2)C(C)C)c1=O [Compound 175]
Blackgrass plant response rating [1, 17]: 0
Blackgrass plant response rating [1, 18]: 0
Blackgrass plant response rating (0 to 10 scale) [1, 19]: 0
Blackgrass plant response rating [1, 20]: 0
Blackgrass plant response rating [1, 21]: 0
Blackgrass plant response rating [1, 22]: 0
Plant response rating, Blackgrass [1, 23]: 0
Blackgrass plant response rating [1, 24]: 0
Crabgrass plant response rating [2, 17]: 0
Crabgrass plant response rating [2, 18]: 5
Crabgrass plant response rating (0 to 10 scale) [2, 19]: 6
Crabgrass plant response rating [2, 20]: 6
Crabgrass plant response rating [2, 21]: 8
Crabgrass plant response rating [2, 22]: 0
Plant response rating, Crabgrass [2, 23]: 0
Crabgrass plant response rating [2, 24]: 0
Giant foxtail plant response rating [3, 17]: 0
Giant foxtail plant response rating [3, 18]: 5
Giant foxtail plant response rating (0 to 10 scale) [3, 19]: 7
Giant foxtail plant response rating [3, 20]: 8
Giant foxtail plant response rating [3, 21]: 8
Giant foxtail plant response rating [3, 22]: 0
Plant response rating, Giant foxtail [3, 23]: 0
Giant foxtail plant response rating [3, 24]: 0
Nutsedge plant response rating [4, 17]: 0
Nutsedge plant response rating [4, 18]: 0
Nutsedge plant response rating (0 to 10 scale) [4, 19]: 0
Nutsedge plant response rating [4, 20]: 3
Nutsedge plant response rating [4, 21]: 3
Nutsedge plant response rating [4, 22]: 0
Plant response rating, Nutsedge [4, 23]: 0
Nutsedge plant response rating [4, 24]: 0
Wheat plant response rating [5, 18]: 0
Wheat plant response rating (0 to 10 scale) [5, 19]: 0
Wheat plant response rating [5, 20]: 0
Wheat plant response rating [5, 21]: 0
Plant response rating, Wheat [5, 23]: 0
Wheat plant response rating [5, 24]: 3
Redroot pigweed plant response rating [6, 17]: 0
Redroot pigweed plant response rating [6, 18]: 0
Redroot pigweed plant response rating (0 to 10 scale) [6, 19]: 0
Redroot pigweed plant response rating [6, 20]: 0
Redroot pigweed plant response rating [6, 21]: 0
Redroot pigweed plant response rating [6, 22]: 0
Plant response rating, Redroot pigweed [6, 23]: 0
Redroot pigweed plant response rating [6, 24]: 0
Morningglory plant response rating [7, 17]: 1
Morningglory plant response rating [7, 18]: 0
Morningglory plant response rating (0 to 10 scale) [7, 19]: 0
Morningglory plant response rating [7, 20]: 0
Morningglory plant response rating [7, 21]: 0
Morningglory plant response rating [7, 22]: 1
Plant response rating, Morningglory [7, 23]: 3
Morningglory plant response rating [7, 24]: 4
Velvetleaf plant response rating [8, 18]: 0
Velvetleaf plant response rating (0 to 10 scale) [8, 19]: 0
Velvetleaf plant response rating [8, 20]: 0
Velvetleaf plant response rating [8, 21]: 0
Plant response rating, Velvetleaf [8, 23]: 3
Velvetleaf plant response rating [8, 24]: 3
Bedstraw plant response rating [9, 17]: 0
Bedstraw plant response rating [9, 18]: 0
Bedstraw plant response rating (0 to 10 scale) [9, 19]: 2
Bedstraw plant response rating [9, 20]: 9
Bedstraw plant response rating [9, 21]: 9
Bedstraw plant response rating [9, 22]: 0
Plant response rating, Bedstraw [9, 23]: 0
Bedstraw plant response rating [9, 24]: 0
Rape plant response rating [10, 17]: 0
Rape plant response rating [10, 18]: 0
Rape plant response rating (0 to 10 scale) [10, 19]: 0
Rape plant response rating [10, 20]: 0
Rape plant response rating [10, 21]: 0
Rape plant response rating [10, 22]: 0
Plant response rating, Rape [10, 23]: 0
Rape plant response rating [10, 24]: 0
Soybean plant response rating [11, 17]: 1
Soybean plant response rating [11, 18]: 0
Soybean plant response rating (0 to 10 scale) [11, 19]: 0
Soybean plant response rating [11, 20]: 0
Soybean plant response rating [11, 21]: 0
Soybean plant response rating [11, 22]: 1
Plant response rating, Soybean [11, 23]: 1
Soybean plant response rating [11, 24]: 1
Wild oats plant response rating [12, 18]: 0
Wild oats plant response rating (0 to 10 scale) [12, 19]: 0
Wild oats plant response rating [12, 20]: 0
Wild oats plant response rating [12, 21]: 0
Plant response rating, Wild oats [12, 23]: 0
Wild oats plant response rating [12, 24]: 0
Sugarbeets plant response rating [13, 17]: 0
Sugarbeets plant response rating [13, 18]: 0
Sugarbeets plant response rating (0 to 10 scale) [13, 19]: 0
Sugarbeets plant response rating [13, 20]: 0
Sugarbeets plant response rating [13, 21]: 0
Sugarbeets plant response rating [13, 22]: 0
Plant response rating, Sugarbeets [13, 23]: 0
Sugarbeets plant response rating [13, 24]: 0
B. signalgrass plant response rating [14, 17]: 0
B. signalgrass plant response rating [14, 18]: 0
B. signalgrass plant response rating (0 to 10 scale) [14, 19]: 0
B. signalgrass plant response rating [14, 20]: 0
B. signalgrass plant response rating [14, 21]: 0
B. signalgrass plant response rating [14, 22]: 0
Plant response rating, B. signalgrass [14, 23]: 0
B. signalgrass plant response rating ([14]; Rate 500 g/ha, Postemergence, scale 0 to 10, 0 no effect, 10 complete control): 0
Corn plant response rating [15, 17]: 0
Corn plant response rating [15, 18]: 0
Corn plant response rating (0 to 10 scale) [15, 19]: 0
Corn plant response rating [15, 20]: 0
Corn plant response rating [15, 21]: 0
Corn plant response rating [15, 22]: 0
Plant response rating, Corn [15, 23]: 0
Corn plant response rating [15, 24]: 0
Cocklebur plant response rating [16, 17]: 0
Cocklebur plant response rating [16, 18]: 0
Cocklebur plant response rating (0 to 10 scale) [16, 19]: 0
Cocklebur plant response rating [16, 20]: 0
Cocklebur plant response rating [16, 21]: 0
Cocklebur plant response rating [16, 22]: 0
Plant response rating, Cocklebur [16, 23]: 2
Cocklebur plant response rating [16, 24]: 3
